# Data from patent publication US7138361B2, “Herbicidal heterocycles” (E. I. du Pont de Nemours and Company, priority 2000, dated 2006).
# Key:
# Assay type in all cases: in vivo
# [1] = tested on: wheat (Triticum aestivum); assay: Test B postemergence
# Excerpt: (§1) Seeds selected from barnyardgrass (Echinochloa crus-galli), Surinam grass (Brachiaria decumbens), cocklebur (Xanthium strumarium), corn (Zea mays), crabgrass (Digitaria sanguinalis), giant foxtail (Setaria faberii), lambsquarters (Chenopodium album), morning glory (Ipomoea hederacea), pigweed (Amaranthus retroflexus), rice (Oryza saliva) and velvetleaf (Abutilon theophrasti) were planted and treated preemergence with test chemicals formulated in a non-phytotoxic solvent mixture which included a surfactant.
# (§2) At the same time, plants selected from these crop and weed species and also blackgrass (Alopecurus myosuroides), wheat (Triticum aestivum) and wild oat (Avena fatua) were treated with postemergence applications of test chemicals formulated in the same manner. Plants ranged in height from 2 to 18 cm (1- to 4-leaf stage) for postemergence treatments. Plant species in the flooded paddy test consisted of rice (Oryza saliva), smallflower flatsedge (Cyperus difformis), duck salad (Heteranthera limosa) and barnyardgrass (Echinochloa crus-galli) grown to the 2-leaf stage for testing. Treated plants and controls were maintained in a greenhouse for 13 to 15 days, after which time all species were compared to controls and visually evaluated. Plant response ratings, summarized in Table B, are based on a scale of 0 to 100 where 0 is no effect and 100 is complete control. A dash (-) response means no test result.
# [2] = tested on: pigweed (Amaranthus retroflexus); assay: Test B postemergence
# Excerpt: as §1, §2
# [3] = tested on: Surinam grass (Brachiaria decumbens); assay: Test B postemergence
# Excerpt: as §1, §2
# corn (Zea mays) [4] = assay: Test B postemergence
# Excerpt: as §1, §2
# wild oat (Avena fatua) = assay: Test B postemergence
# Excerpt: as §1, §2
# [5] = tested on: cocklebur (Xanthium strumarium); assay: Test B postemergence
# Excerpt: as §1, §2
# [6] = tested on: lambsquarters (Chenopodium album); assay: Test B postemergence
# Excerpt: as §1, §2
# [7] = tested on: barnyardgrass (Echinochloa crus-galli); assay: Test B postemergence
# Excerpt: as §1, §2
# [8] = tested on: crabgrass (Digitaria sanguinalis); assay: Test B postemergence
# Excerpt: as §1, §2
# [9] = tested on: velvetleaf (Abutilon theophrasti); assay: Test B postemergence
# Excerpt: as §1, §2
# [10] = tested on: morning glory (Ipomoea hederacea); assay: Test B postemergence
# Excerpt: as §1, §2
# [11] = tested on: blackgrass (Alopecurus myosuroides); assay: Test B postemergence
# Excerpt: as §1, §2
# [12] = tested on: giant foxtail (Setaria faberii); assay: Test B postemergence
# Excerpt: as §1, §2
# [13] = tested on: pigweed (Amaranthus retroflexus); assay: Test B preemergence
# Method in brief: (§3)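 Pre: seeded pots sprayed, chemical in non-phytotoxic solvent/surfactant mix. Post: plants 2–18 cm, 1–4 leaf, same formulation. Greenhouse 13–15 d; visual % control vs untreated, 0–100 scale.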
# [14] = tested on: Surinam grass (Brachiaria decumbens); assay: Test B preemergence
# Method in brief: as §3
# corn (Zea mays) [15] = assay: Test B preemergence
# Method in brief: as §3
# [16] = tested on: cocklebur (Xanthium strumarium); assay: Test B preemergence
# Method in brief: as §3
# [17] = tested on: lambsquarters (Chenopodium album); assay: Test B preemergence
# Method in brief: as §3
# [18] = tested on: barnyardgrass (Echinochloa crus-galli); assay: Test B preemergence
# Method in brief: as §3
# [19] = tested on: crabgrass (Digitaria sanguinalis); assay: Test B preemergence
# Method in brief: as §3
# [20] = tested on: velvetleaf (Abutilon theophrasti); assay: Test B preemergence
# Method in brief: as §3
# [21] = tested on: morning glory (Ipomoea hederacea); assay: Test B preemergence
# Method in brief: as §3
# rice (Oryza saliva) [22] = assay: Test B preemergence
# Method in brief: as §3
# [23] = tested on: giant foxtail (Setaria faberii); assay: Test B preemergence
# Method in brief: as §3
# [24] = tested on: duck salad (Heteranthera limosa); assay: Test C flooded paddy test; conditions: for Ducksalad plant response rating: Flooded Paddy, scale 0 to 100, 0 no effect, 100 complete control; for Plant response rating, Ducksalad: flooded paddy test, scale 0 to 100 (0 no effect, 100 complete control)
# Method in brief: (§4)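 Flooded paddy, 2-leaf stage at treatment. Readout: visual % control vs untreated, 0–100, at 12–14 d in greenhouse.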
# [25] = tested on: smallflower flatsedge (Cyperus difformis); assay: Test C flooded paddy test; conditions: for Flatsedge plant response rating: Flooded Paddy, scale 0 to 100, 0 no effect, 100 complete control; for Plant response rating, Flatsedge: flooded paddy test, scale 0 to 100 (0 no effect, 100 complete control)
# Method in brief: as §4
# [26] = tested on: barnyardgrass (Echinochloa crus-galli); assay: Test C flooded paddy test; conditions: for Barnyardgrass plant response rating: Flooded Paddy, scale 0 to 100, 0 no effect, 100 complete control; for Plant response rating, Barnyardgrass: flooded paddy test, scale 0 to 100 (0 no effect, 100 complete control)
# Method in brief: as §4
# rice (Oryza saliva) [27] = assay: Test C flooded paddy test; conditions: for Rice plant response rating: Flooded Paddy, scale 0 to 100, 0 no effect, 100 complete control; for Plant response rating, Rice: flooded paddy test, scale 0 to 100 (0 no effect, 100 complete control)
# Method in brief: as §4
# [28] = Rate 125 g/ha, scale 0 to 100, 0 no effect, 100 complete control
# [29] = Rate 500 g/ha, scale 0 to 100, 0 is no effect, 100 is complete control, 13 to 15 days
# [30] = Preemergence, Rate 500 g/ha, scale 0 to 100, 0 no effect, 100 complete control
# [31] = preemergence, Rate 125 g/ha, scale of 0 to 100 where 0 is no effect and 100 is complete control, 13 to 15 days
# [32] = Rate 125 g/ha, scale 0 (no effect) to 100 (complete control), 13 to 15 days
compound,measurement,setting,value
CCOc1cccc(N2CCC(n3ccc(C(C)CC)n3)C2=O)c1 (stereo not shown) [Compound 126],"Plant response rating, Wheat",[1]; [28],0
same,"Plant response rating, Pigweed",[2]; [28],30
same,"Plant response rating, Surinam grass",[3]; [28],0
same,"Plant response rating, Surinam grass",[3]; [29],0
same,"Plant response rating, Corn",corn (Zea mays) [4]; [28],0
same,"Plant response rating, Corn",corn (Zea mays) [4]; [29],0
same,"Plant response rating, Wild Oat",wild oat (Avena fatua); [28],0
same,"Plant response rating, Cocklebur",[5]; [28],0
same,"Plant response rating, Cocklebur",[5]; [29],70
same,"Plant response rating, Lambsquarters",[6]; [28],100
same,"Plant response rating, Barnyardgrass",[7]; [28],0
same,"Plant response rating, Barnyardgrass",[7]; [29],80
same,"Plant response rating, Crabgrass",[8]; [28],0
same,"Plant response rating, Velvetleaf",[9]; [28],0
same,"Plant response rating, Morningglory",[10]; [28],0
same,"Plant response rating, Blackgrass",[11]; [28],0
same,"Plant response rating, Blackgrass",[11]; [29],0
same,"Plant response rating, Foxtail, Giant",[12]; [28],0
same,"Plant response rating, Pigweed",[13]; [30],100
same,"Plant response rating, Pigweed",[13]; [31],100
same,"Plant response rating, Surinam grass",[14]; [30],100
same,"Plant response rating, Surinam grass",[14]; [31],100
same,"Plant response rating, Corn",corn (Zea mays) [15]; [30],50
same,"Plant response rating, Corn",corn (Zea mays) [15]; [31],30
same,"Plant response rating, Cocklebur",[16]; [30],70
same,"Plant response rating, Cocklebur",[16]; [31],50
same,"Plant response rating, Lambsquarters",[17]; [30],100
same,"Plant response rating, Lambsquarters",[17]; [31],100
same,"Plant response rating, Barnyardgrass",[18]; [30],100
same,"Plant response rating, Barnyardgrass",[18]; [31],100
same,"Plant response rating, Crabgrass",[19]; [30],100
same,"Plant response rating, Crabgrass",[19]; [31],100
same,"Plant response rating, Velvetleaf",[20]; [30],60
same,"Plant response rating, Velvetleaf",[20]; [31],0
same,"Plant response rating, Morningglory",[21]; [30],100
same,"Plant response rating, Morningglory",[21]; [31],70
same,"Plant response rating, Rice",rice (Oryza saliva) [22]; [30],100
same,"Plant response rating, Rice",rice (Oryza saliva) [22]; [31],70
same,"Plant response rating, Foxtail, Giant",[23]; [30],100
same,"Plant response rating, Foxtail, Giant",[23]; [31],100
same,Ducksalad plant response rating,[24]; Rate 250 g/ha,100
same,Ducksalad plant response rating,[24]; Rate 500 g/ha,100
same,"Plant response rating, Ducksalad",[24]; Rate 62 g/ha,60
same,"Plant response rating, Ducksalad",[24]; Rate 125 g/ha,100
same,Flatsedge plant response rating,[25]; Rate 250 g/ha,100
same,Flatsedge plant response rating,[25]; Rate 500 g/ha,100
same,"Plant response rating, Flatsedge",[25]; Rate 62 g/ha,100
same,"Plant response rating, Flatsedge",[25]; Rate 125 g/ha,100
same,Barnyardgrass plant response rating,[26]; Rate 250 g/ha,100
same,Barnyardgrass plant response rating,[26]; Rate 500 g/ha,100
same,"Plant response rating, Barnyardgrass",[26]; Rate 62 g/ha,35
same,"Plant response rating, Barnyardgrass",[26]; Rate 125 g/ha,100
same,Rice plant response rating,rice (Oryza saliva) [27]; Rate 250 g/ha,20
same,Rice plant response rating,rice (Oryza saliva) [27]; Rate 500 g/ha,60
same,"Plant response rating, Rice",rice (Oryza saliva) [27]; Rate 62 g/ha,0
same,"Plant response rating, Rice",rice (Oryza saliva) [27]; Rate 125 g/ha,20
CC(C)(C)c1ccn(C2OCN(c3cccc(OC(F)(F)F)c3)C2=O)n1 (stereo not shown) [Compound 66],"Plant response rating, Wheat",[1]; [32],0
same,"Plant response rating, Wheat",[1]; [29],0
same,"Plant response rating, Pigweed",[2]; [32],0
same,"Plant response rating, Pigweed",[2]; [29],0
same,"Plant response rating, Surinam grass",[3]; [32],0
same,"Plant response rating, Surinam grass",[3]; [29],30
same,"Plant response rating, Corn",corn (Zea mays) [4]; [32],0
same,"Plant response rating, Corn",corn (Zea mays) [4]; [29],0
same,"Plant response rating, Wild Oat",wild oat (Avena fatua); [32],0
same,"Plant response rating, Wild Oat",wild oat (Avena fatua); [29],0
same,"Plant response rating, Cocklebur",[5]; [32],0
same,"Plant response rating, Cocklebur",[5]; [29],20
same,"Plant response rating, Lambsquarters",[6]; [32],90
same,"Plant response rating, Lambsquarters",[6]; [29],90
same,"Plant response rating, Barnyardgrass",[7]; [32],100
same,"Plant response rating, Barnyardgrass",[7]; [29],100
same,"Plant response rating, Crabgrass",[8]; [32],30
same,"Plant response rating, Crabgrass",[8]; [29],100
same,"Plant response rating, Velvetleaf",[9]; [32],20
same,"Plant response rating, Velvetleaf",[9]; [29],20
same,"Plant response rating, Morningglory",[10]; [32],0
same,"Plant response rating, Morningglory",[10]; [29],0
same,"Plant response rating, Blackgrass",[11]; [32],0
same,"Plant response rating, Blackgrass",[11]; [29],0
same,"Plant response rating, Foxtail, Giant",[12]; [32],0
same,"Plant response rating, Foxtail, Giant",[12]; [29],60
same,"Plant response rating, Pigweed",[13]; [30],100
same,"Plant response rating, Pigweed",[13]; [31],100
same,"Plant response rating, Surinam grass",[14]; [30],20
same,"Plant response rating, Surinam grass",[14]; [31],20
same,"Plant response rating, Corn",corn (Zea mays) [15]; [30],0
same,"Plant response rating, Corn",corn (Zea mays) [15]; [31],0
same,"Plant response rating, Cocklebur",[16]; [30],0
same,"Plant response rating, Lambsquarters",[17]; [30],100
same,"Plant response rating, Lambsquarters",[17]; [31],100
same,"Plant response rating, Barnyardgrass",[18]; [30],100
same,"Plant response rating, Barnyardgrass",[18]; [31],100
same,"Plant response rating, Crabgrass",[19]; [30],40
same,"Plant response rating, Crabgrass",[19]; [31],0
same,"Plant response rating, Velvetleaf",[20]; [30],20
same,"Plant response rating, Velvetleaf",[20]; [31],0
same,"Plant response rating, Morningglory",[21]; [30],20
same,"Plant response rating, Rice",rice (Oryza saliva) [22]; [30],20
same,"Plant response rating, Rice",rice (Oryza saliva) [22]; [31],0
same,"Plant response rating, Foxtail, Giant",[23]; [30],40
same,"Plant response rating, Foxtail, Giant",[23]; [31],20
same,Ducksalad plant response rating,[24]; Rate 250 g/ha,100
same,Ducksalad plant response rating,[24]; Rate 500 g/ha,100
same,"Plant response rating, Ducksalad",[24]; Rate 62 g/ha,30
same,"Plant response rating, Ducksalad",[24]; Rate 125 g/ha,90
same,Flatsedge plant response rating,[25]; Rate 250 g/ha,100
same,Flatsedge plant response rating,[25]; Rate 500 g/ha,100
same,"Plant response rating, Flatsedge",[25]; Rate 62 g/ha,100
same,"Plant response rating, Flatsedge",[25]; Rate 125 g/ha,100
same,Barnyardgrass plant response rating,[26]; Rate 250 g/ha,100
same,Barnyardgrass plant response rating,[26]; Rate 500 g/ha,100
same,"Plant response rating, Barnyardgrass",[26]; Rate 62 g/ha,70
same,"Plant response rating, Barnyardgrass",[26]; Rate 125 g/ha,100
same,Rice plant response rating,rice (Oryza saliva) [27]; Rate 250 g/ha,50
same,Rice plant response rating,rice (Oryza saliva) [27]; Rate 500 g/ha,100
same,"Plant response rating, Rice",rice (Oryza saliva) [27]; Rate 62 g/ha,0
same,"Plant response rating, Rice",rice (Oryza saliva) [27]; Rate 125 g/ha,0
